# Reference: ChEMBL document CHEMBL1944551, “An integrated computational workflow for efficient and quantitative modeling of renin inhibitors” (Bioorg Med Chem, 2012)
# Assay: physchem
# Details: octanol/buffer
row,logP,SMILES
1,5.04,Cc1cc(Cl)c(OCCOc2ccc(N3C(=O)CNC[C@@H]3C(=O)N(Cc3cccc(Cl)c3)C3CC3)cn2)c(Cl)c1
2,5.58,COC(=O)NCc1ccc(Cl)c(CN(C(=O)[C@H]2CNCC(=O)N2c2ccc(OCCOc3c(Cl)cc(C)cc3Cl)cc2)C2CC2)c1
3,4.61,COCCCc1cc(CN(C(=O)[C@H]2CNCC(=O)N2c2ccc(OCCOc3c(Cl)cc(C)cc3Cl)nc2)C2CC2)c(Cl)c[n+]1[O-]
4,5.66,O=C([C@H]1CNCC(=O)N1c1ccc(OCCCOCc2ccccc2)cc1)N(Cc1cc(CCNC2CC2)ccc1Cl)C1CC1
5,4.02,CN(CCCc1ccccc1)C(=O)[C@H]1CNCC(=O)N1c1ccc(COC(=O)c2ccccc2)cc1
6,3.58,CN(CCc1ccccc1)C(=O)[C@H]1CNCC(=O)N1c1ccc(COC(=O)c2ccccc2)cc1
7,5.6,CCNC(=O)Cc1ccc(Cl)c(CN(C(=O)[C@H]2CNCC(=O)N2c2ccc(OCCOc3c(Cl)cc(C)cc3Cl)cc2)C2CC2)c1
8,5.43,O=C([C@H]1CNCC(=O)N1c1ccc(OCCCOCc2ccccc2)cc1)N(Cc1cc(CCNCC(F)F)ccc1Cl)C1CC1
9,3.05,COc1ccccc1COCCCOc1ncc(N2C(=O)CNC[C@@H]2C(=O)N(Cc2ccccc2Cl)C2CC2)cn1
10,2.43,COCCCc1cc(CN(C(=O)[C@H]2CNCC(=O)N2c2cnc(OCCCOCc3ccccc3OC)nc2)C2CC2)c(Cl)cn1
11,4.94,COC(=O)NCCc1ccc(Cl)c(CN(C(=O)[C@H]2CNCC(=O)N2c2ccc(OCCCOCc3ccccc3)cc2)C2CC2)c1
12,4.97,CNCCc1ccc(Cl)c(CN(C(=O)[C@H]2CNCC(=O)N2c2ccc(OCCCOCc3ccccc3OC)cc2)C2CC2)c1
13,4.48,COC(=O)NCc1ccc(Cl)c(CN(C(=O)[C@H]2CNCC(=O)N2c2ccc(COC(=O)c3ccccc3)cc2)C2CC2)c1
14,5.7,O=C([C@H]1CNCC(=O)N1c1ccc(OCCCOCc2ccccc2)cc1)N(Cc1cccc(Cl)c1Cl)C1CC1
15,5.27,COCCc1ccc(Cl)c(CN(C(=O)[C@H]2CNCC(=O)N2c2ccc(OCCCOCc3ccccc3OC)cc2)C2CC2)c1
16,3.95,CN(CCc1ccccc1)C(=O)[C@H]1CNCC(=O)N1c1ccc(OCCCOCc2ccccc2)cc1
17,5.97,CCNCCc1ccc(Cl)c(CN(C(=O)[C@H]2CNCC(=O)N2c2ccc(CCCOc3c(F)ccc(F)c3F)cc2)C2CC2)c1
18,2.98,CCC(=O)NCc1ccc(Cl)c(CN(C(=O)[C@H]2CNCC(=O)N2c2cnc(OCCCOCc3ccccc3OC)nc2)C2CC2)c1
19,4.89,CCNCc1ccc(Cl)c(CN(C(=O)[C@H]2CNCC(=O)N2c2ccc(COC(=O)c3ccccc3)cc2)C2CC2)c1
20,5.72,COCCCc1ccc(Cl)c(CN(C(=O)[C@H]2CNCC(=O)N2c2ccc(OCCCOCc3ccccc3OC)cc2)C2CC2)c1
21,4.9,COC(=O)NCCc1ccc(Cl)c(CN(C(=O)[C@H]2CNCC(=O)N2c2ccc(OCCCOCc3ccccc3OC)cc2)C2CC2)c1
22,6.02,Cc1cc(Cl)c(OCCOc2ccc(N3C(=O)CNC[C@@H]3C(=O)N(Cc3cc(CNC(=O)CC(F)(F)F)ccc3Cl)C3CC3)cc2)c(Cl)c1
23,2.98,COc1ccccc1COCCCOc1ncc(N2C(=O)CNC[C@@H]2C(=O)N(Cc2cc(CNCCF)ccc2Cl)C2CC2)cn1
24,5.11,O=C([C@H]1CNCC(=O)N1c1ccc(OCCCOCc2ccccc2)cc1)N(Cc1ccc(Cl)cc1)C1CC1
25,5.05,O=C(OCc1ccc(N2C(=O)CNC[C@@H]2C(=O)N(Cc2cc(CCNCC(F)F)ccc2Cl)C2CC2)cc1)c1ccccc1

row,logP,SMILES
1,5.11,COCCCc1cc(CN(C(=O)[C@H]2CNCC(=O)N2c2ccc(CCCOc3c(F)ccc(F)c3F)cc2)C2CC2)c(Cl)cn1
2,3.05,COc1ccccc1COCCCOc1ncc(N2C(=O)CNC[C@@H]2C(=O)N(Cc2ccc(Cl)cc2)C2CC2)cn1
3,4.57,COC(=O)NCCc1ccc(Cl)c(CN(C(=O)[C@H]2CNCC(=O)N2c2ccc(COC(=O)c3ccccc3)cc2)C2CC2)c1
4,4.87,COc1ccccc1COCCCOc1ccc(N2C(=O)CNC[C@@H]2C(=O)N(Cc2cc(CNC(=O)C3CC3)ccc2Cl)C2CC2)cc1
5,5.56,CNC(=O)OCCc1ccc(Cl)c(CN(C(=O)[C@H]2CNCC(=O)N2c2ccc(CCCOc3c(F)ccc(F)c3F)cc2)C2CC2)c1
6,5.56,COc1cccc(CN(C(=O)[C@H]2CNCC(=O)N2c2ccc(CCCOc3cccc(Cl)c3)cc2)C2CC2)c1C
7,5.04,CCC(=O)NCc1ccc(Cl)c(CN(C(=O)[C@H]2CNCC(=O)N2c2ccc(OCCCOCc3ccccc3)cc2)C2CC2)c1
8,5.06,COc1ccccc1COCCCOc1ccc(N2C(=O)CNC[C@@H]2C(=O)N(Cc2ccccc2Cl)C2CC2)cc1
9,6.39,Cc1cc(Cl)c(OCCOc2ccc(N3C(=O)CNC[C@@H]3C(=O)N(Cc3cc(CCNC4CC4)ccc3Cl)C3CC3)cc2)c(Cl)c1
10,3.76,Cc1cc(Cl)c(OCCOc2ccc(N3C(=O)CNC[C@@H]3C(=O)N(C)Cc3ccccc3)cn2)c(Cl)c1
11,4.55,CC(=O)NCCc1ccc(Cl)c(CN(C(=O)[C@H]2CNCC(=O)N2c2ccc(OCCOc3c(Cl)cc(C)cc3Cl)nc2)C2CC2)c1
12,2.81,CCNC(=O)Cc1ccc(Cl)c(CN(C(=O)[C@H]2CNCC(=O)N2c2cnc(OCCCOCc3ccccc3OC)nc2)C2CC2)c1
13,4.57,CNC(=O)OCCc1ccc(Cl)c(CN(C(=O)[C@H]2CNCC(=O)N2c2ccc(COC(=O)c3ccccc3)cc2)C2CC2)c1
14,6.15,Cc1cc(Cl)c(OCCOc2ccc(N3C(=O)CNC[C@@H]3C(=O)N(Cc3cc(CCNCC(F)F)ccc3Cl)C3CC3)cc2)c(Cl)c1
15,6.46,O=C([C@H]1CNCC(=O)N1c1ccc(CCCOc2cccc(Cl)c2)cc1)N(Cc1cc(CCNC2CC2)ccc1Cl)C1CC1
16,3.64,COc1ccccc1COCCCOc1ncc(N2C(=O)CNC[C@@H]2C(=O)N(Cc2cccc(Cl)c2Cl)C2CC2)cn1
17,4.66,COCCCc1cc(CN(C(=O)[C@H]2CNCC(=O)N2c2ccc(OCCCOCc3ccccc3OC)cc2)C2CC2)c(Cl)c[n+]1[O-]
18,4.39,COc1cccc(CN(C(=O)[C@H]2CNCC(=O)N2c2ccc(COC(=O)c3ccccc3)cc2)C2CC2)c1C
19,6.46,CC(C)(C)OCC(=O)NCCc1ccc(Cl)c(CN(C(=O)[C@H]2CNCC(=O)N2c2ccc(CCCOc3cccc(Cl)c3)cc2)C2CC2)c1
20,3.62,COc1ccccc1COCCCOc1ccc(N2C(=O)CNC[C@@H]2C(=O)NCc2ccccc2)cc1
21,4.61,COc1ccccc1COCCCOc1ccc(N2C(=O)CNC[C@@H]2C(=O)N(Cc2cc(CCNC(C)=O)ccc2Cl)C2CC2)cc1
22,4.33,COCCCc1cc(CN(C(=O)[C@H]2CNCC(=O)N2c2ccc(COC(=O)c3ccccc3)cc2)C2CC2)c(Cl)c[n+]1[O-]
23,2.88,COC(=O)NCCc1ccc(Cl)c(CN(C(=O)[C@H]2CNCC(=O)N2c2cnc(OCCCOCc3ccccc3OC)nc2)C2CC2)c1
24,5.61,COc1ccccc1COCCCOc1ccc(N2C(=O)CNC[C@@H]2C(=O)N(Cc2cc(CCNC(=O)COC(C)(C)C)ccc2Cl)C2CC2)cc1
25,5.53,COc1ccccc1COCCCOc1ccc(N2C(=O)CNC[C@@H]2C(=O)N(Cc2cc(CNC3CC3)ccc2Cl)C2CC2)cc1

row,logP,SMILES
1,5.73,Cc1cccc(CN(C(=O)[C@H]2CNCC(=O)N2c2ccc(CCCOc3c(F)ccc(F)c3F)cc2)C2CC2)c1C
2,5.77,O=C([C@H]1CNCC(=O)N1c1ccc(CCCOc2c(F)ccc(F)c2F)cc1)N(Cc1cccc(Cl)c1)C1CC1
3,4.19,CC(=O)NCc1ccc(Cl)c(CN(C(=O)[C@H]2CNCC(=O)N2c2ccc(COC(=O)c3ccccc3)cc2)C2CC2)c1
4,5.05,O=C(NCc1ccccc1Cl)[C@H]1CNCC(=O)N1c1ccc(CCCOc2cccc(Cl)c2)cc1
5,6.2,O=C([C@H]1CNCC(=O)N1c1ccc(CCCOc2c(F)ccc(F)c2F)cc1)N(Cc1cc(CNC2CC2)ccc1Cl)C1CC1
6,4.67,CCC(=O)NCc1ccc(Cl)c(CN(C(=O)[C@H]2CNCC(=O)N2c2ccc(COC(=O)c3ccccc3)cc2)C2CC2)c1
7,5.11,O=C([C@H]1CNCC(=O)N1c1ccc(OCCCOCc2ccccc2)cc1)N(Cc1ccccc1Cl)C1CC1
8,4.88,O=C(NCc1ccccc1Cl)[C@H]1CNCC(=O)N1c1ccc(CCCOc2c(F)ccc(F)c2F)cc1
9,4.57,CN(CCc1ccccc1)C(=O)[C@H]1CNCC(=O)N1c1ccc(CCCOc2c(F)ccc(F)c2F)cc1
10,5.15,CNC(=O)Cc1ccc(Cl)c(CN(C(=O)[C@H]2CNCC(=O)N2c2ccc(CCCOc3c(F)ccc(F)c3F)cc2)C2CC2)c1
11,2.65,COCCCc1cc(CN(C(=O)[C@H]2CNCC(=O)N2c2cnc(OCCCOCc3ccccc3OC)nc2)C2CC2)c(Cl)c[n+]1[O-]
12,5.74,CNC(=O)OCCc1ccc(Cl)c(CN(C(=O)[C@H]2CNCC(=O)N2c2ccc(CCCOc3cccc(Cl)c3)cc2)C2CC2)c1
13,4.39,CN(CCCc1ccccc1)C(=O)[C@H]1CNCC(=O)N1c1ccc(OCCCOCc2ccccc2)cc1
14,4.54,O=C(OCc1ccc(N2C(=O)CNC[C@@H]2C(=O)N(Cc2cc(CNC(=O)C3CC3)ccc2Cl)C2CC2)cc1)c1ccccc1
15,5.19,Cc1cc(Cl)c(OCCOc2ccc(N3C(=O)CNC[C@@H]3C(=O)N(Cc3cc(CNC(=O)CC(F)(F)F)ccc3Cl)C3CC3)cn2)c(Cl)c1
16,5.94,O=C([C@H]1CNCC(=O)N1c1ccc(CCCOc2cccc(Cl)c2)cc1)N(Cc1cccc(Cl)c1)C1CC1
17,5.98,O=C(Cc1ccc(Cl)c(CN(C(=O)[C@H]2CNCC(=O)N2c2ccc(CCCOc3cccc(Cl)c3)cc2)C2CC2)c1)NC1CC1
18,6.42,Cc1cc(Cl)c(OCCOc2ccc(N3C(=O)CNC[C@@H]3C(=O)N(Cc3cccc(Cl)c3Cl)C3CC3)cc2)c(Cl)c1
19,5.2,O=C(OCc1ccc(N2C(=O)CNC[C@@H]2C(=O)N(Cc2cc(CNC3CC3)ccc2Cl)C2CC2)cc1)c1ccccc1
20,6.06,CCNCc1ccc(Cl)c(CN(C(=O)[C@H]2CNCC(=O)N2c2ccc(CCCOc3cccc(Cl)c3)cc2)C2CC2)c1
21,2.4,COc1ccccc1COCCCOc1ncc(N2C(=O)CNC[C@@H]2C(=O)N(C)Cc2ccccc2Cl)cn1
22,2.8,COC(=O)NCc1ccc(Cl)c(CN(C(=O)[C@H]2CNCC(=O)N2c2cnc(OCCCOCc3ccccc3OC)nc2)C2CC2)c1
23,5.59,Cc1cc(Cl)c(OCCOc2ccc(N3C(=O)CNC[C@@H]3C(=O)N(Cc3cccc(Cl)c3Cl)C3CC3)cn2)c(Cl)c1
24,2.6,COc1ccccc1COCCCOc1ncc(N2C(=O)CNC[C@@H]2C(=O)N(Cc2cc(CCNC(C)=O)ccc2Cl)C2CC2)cn1
